Results reported in article PMC6272327, “Discovery of Metal Ions Chelator Quercetin Derivatives with Potent Anti-HCV Activities” (Molecules, 2015).
Where two headings read alike, the source gives them in different places.

What was measured:
[1] = system: HCV infectious virus J399EM; experiment: Anti-HCV assay in authentic HCV infection/replication system (J399EM EGFP reporter virus) in Huh7.5.1 cells; type: cell-based, hepatitis C virus (JFH1-derived, genotype 2a); conditions: for EC50: Hepatitis C virus, Huh-7.5.1, 72 h; for SI (selectivity index): ratio of CC50 to EC50, Huh7.5.1 cells
Description: (§1) The inhibition of HCV by all synthesized quercetin derivatives was evaluated following a previously reported procedure. All newly synthesized compounds were tested in authentic HCV infection/replication system in the human hepatoma cell lines Huh7.5.1 using mycophenolic acid (MPA) as control compound. The cytotoxicity effect of the test compounds was also evaluated in the same cell line by MTT method. Antiviral effect and cytotoxicity effect were summarized as EC50 and CC50 respectively, as well as the selective index (SI) which is the ratio of CC50 to EC50. The stability of quercetin-3-O-ester compounds were also tested in the same buffer as the antiviral activity assay at 37 °C and the hydrolysate was measured by HPLC.
The biological assays were performed following a previously reported procedure. The Huh7.5.1 cell line and the HCV infectious virus J399EM were kindly provided by Xin-Wen Chen, Wuhan Institute of Virology, Chinese Academy of Sciences. Huh7.5.1 cells were cultured in Dulbecco’s modified Eagle’s medium (DMEM) containing 10% (v/v) fetal bovine serum, 0.5 mg/mL G418, 100 IU/mL penicillin, and […].
J399EM is an infectious HCV virus derived from the JFH1 virus (genotype 2a) by insertion of enhanced green fluorescent protein (EGFP) into the HCV NS5A region. The establishment of the infectious J399EM HCV virus has been described previously. J399EM was propagated in Huh7.5.1 cells. Briefly, Huh7.5.1 cells were infected with J399EM at MOI = 0.1 and cultured for 4 days. Culture supernatant was collected and filtered through a 0.45 μm membrane and stored at −80 °C as virus stock. Virus titer was tested in Huh7.5.1 cells. Stocks were serially diluted, and the foci forming units (FFU) were determined as the number of fluorescent colonies formed in infected Huh7.5.1.
All the compounds were first dissolved in DMSO at 50 mM, and then diluted to various concentrations (50 μM, 25 μM, 12.5 μM, 6.3 μM and 3.1 μM). Approximately 1 × 10^4 Huh7.5.1 cells per well were plated in an opaque 96-well tissue culture plate (Costar 3904). The next day, the medium was replaced by J399EM virus at an MOI of 0.3. Four hours later, the virus inoculum was removed and medium containing different concentrations of compounds was added. After an additional 72 h of incubation, the culture medium was removed and the EGFP autofluorescence was measured by using a […] with excitation at 488 nm and emission at 516 nm. Compounds and controls were performed in duplicate and each experiment repeated independently at least twice.

[2] = Cell viability / cytotoxicity by MTT method; type: cell-based; conditions: human
Description: as §1
After the EGFP signal was read, cell viability was measured in the same plate by the MTT [3-(4,5-dimethylthiazol-2-yl)-2,5-diphenyltetrazolium bromide; Sigma-Aldrich, St. Louis, MO, USA] method. Briefly, MTT (1 mg/mL) was dissolved in PBS. Cell culture supernatants were removed and replaced with MTT and further cultured for 4 h; cells were then lysed with 10% sodium dodecyl sulfate (SDS), 50% N,N-dimethylformamide, pH 7.2. OD570 values were read. The percentage of cell death was calculated against the control well without compounds.

Row | Structure (SMILES) | EC50 [1] | SI (selectivity index) [1] | CC50 [2] | melting point | CC50 ([2]; Huh7.5.1 cells, MTT, concentration required to reduce cell proliferation by 50%, average of duplicate determinations, read-out: CC50)
1 | O=c1c(O)c(-c2ccc(O)c(O)c2)oc2cc(OCc3ccc(F)cc3)cc(O)c12 [Compound 3n, 2-(3,4-Dihydroxyphenyl)-7-((4-fluorobenzyl)oxy)-3,5-dihydroxy-4H-chromen-4-one] | 5.1 ± 0.5 µM | 6.2 | 31.9 ± 3.4 µM | 254 to 255 °C | –
2 | N#Cc1ccccc1COc1cc(O)c2c(=O)c(O)c(-c3ccc(O)c(O)c3)oc2c1 [Compound 3f, 2-(((2-(3,4-Dihydroxyphenyl)-3,5-dihydroxy-4-oxo-4H-chromen-7-yl)oxy)methyl)benzonitrile] | 7.5 ± 0.5 µM | 1.7 | 12.6 ± 0.1 µM | 248 to 249 °C | –
3 | O=C(Oc1c(-c2ccc(O)c(O)c2)oc2cc(O)cc(O)c2c1=O)c1ccc(F)cc1 [Compound 4k, 2-(3,4-Dihydroxyphenyl)-5,7-dihydroxy-4-oxo-4H-chromen-3-yl 4-fluorobenzoate] | 9.7 ± 3.1 µM | 3.6 | 35 ± 2.4 µM | 203 to 205 °C | –
4 | O=C(Oc1c(-c2ccc(O)c(O)c2)oc2cc(O)cc(O)c2c1=O)c1ccccc1 [Compound 4a, 2-(3,4-Dihydroxyphenyl)-5,7-dihydroxy-4-oxo-4H-chromen-3-yl benzoate] | 14.3 ± 5.1 µM | >3.5 | > 50 µM | 173 to 174 °C | –
5 | Cc1ccc(COc2cc(O)c3c(=O)c(O)c(-c4ccc(O)c(O)c4)oc3c2)cc1 [Compound 3q, 2-(3,4-Dihydroxyphenyl)-3,5-dihydroxy-7-((4-methylbenzyl)oxy)-4H-chromen-4-one] | 6.7 ± 1.4 µM | 2.4 | 15.9 ± 1 µM | 261 to 264 °C | –
6 | Cc1cccc(COc2cc(O)c3c(=O)c(O)c(-c4ccc(O)c(O)c4)oc3c2)c1 [Compound 3k, 2-(3,4-Dihydroxyphenyl)-3,5-dihydroxy-7-((3-methylbenzyl)oxy)-4H-chromen-4-one] | 4.7 ± 0.4 µM | 6.9 | 32.5 ± 0.7 µM | 224 to 226 °C | –
7 | O=c1c(O)c(-c2ccc(O)c(O)c2)oc2cc(OCc3ccccc3)cc(O)c12 [Compound 3a, 7-(Benzyloxy)-2-(3,4-dihydroxyphenyl)-3,5-dihydroxy-4H-chromen-4-one] | 8.7 ± 0.2 µM | >5.8 | > 50 µM | 255 to 257 °C | –
8 | O=C(Oc1c(-c2ccc(O)c(O)c2)oc2cc(O)cc(O)c2c1=O)c1ccc(Cl)cc1 [Compound 4o, 2-(3,4-Dihydroxyphenyl)-5,7-dihydroxy-4-oxo-4H-chromen-3-yl 4-chlorobenzoate] | 14.3 ± 2.2 µM | >3.5 | > 50 µM | 194 to 195 °C | –
9 | O=c1c(OCCO)c(-c2ccc(O)c(O)c2)oc2cc(O)cc(O)c12 [Compound 12c, 2-(3,4-Dihydroxyphenyl)-5,7-dihydroxy-3-(2-hydroxyethoxy)-4H-chromen-4-one] | 26.3 ± 3.1 µM | >1.9 | > 50 µM | – | –
10 | Nc1cccc(C(=O)Oc2c(-c3ccc(O)c(O)c3)oc3cc(O)cc(O)c3c2=O)c1 [Compound 4g, 2-(3,4-Dihydroxyphenyl)-5,7-dihydroxy-4-oxo-4H-chromen-3-yl 3-aminobenzoate] | 21.1 ± 1.3 µM | >2.4 | > 50 µM | 216 to 217 °C | –
11 | COc1c(-c2ccc(O)c(O)c2)oc2cc(O)cc(O)c2c1=O [Compound 12a, 2-(3,4-Dihydroxyphenyl)-5,7-dihydroxy-3-methoxy-4H-chromen-4-one] | 11.2 ± 0.1 µM | >4.5 | > 50 µM | – | –
12 | O=c1c(O)c(-c2ccc(O)c(O)c2)oc2cc(OCc3cccc(Br)c3)cc(O)c12 [Compound 3j, 7-((3-Bromobenzyl)oxy)-2-(3,4-dihydroxyphenyl)-3,5-dihydroxy-4H-chromen-4-one] | 4.1 ± 0.3 µM | 5.4 | 22.3 ± 1.2 µM | 234 to 236 °C | –
13 | O=c1c(O)c(-c2ccc(O)c(O)c2)oc2cc(OCc3ccc(Cl)cc3)cc(O)c12 [Compound 3o, 7-((4-Chlorobenzyl)oxy)-2-(3,4-dihydroxyphenyl)-3,5-dihydroxy-4H-chromen-4-one] | 3.9 ± 0.3 µM | 3.9 | 15.1 ± 0.1 µM | 266 to 267 °C | –
14 | COc1cccc(C(=O)Oc2c(-c3ccc(O)c(O)c3)oc3cc(O)cc(O)c3c2=O)c1 [Compound 4h, 2-(3,4-Dihydroxyphenyl)-5,7-dihydroxy-4-oxo-4H-chromen-3-yl 3-methoxybenzoate] | 15.6 ± 0.3 µM | >3.2 | > 50 µM | 173 to 174 °C | –
15 | N#CCCCOc1c(-c2ccc(O)c(O)c2)oc2cc(O)cc(O)c2c1=O [Compound 12d, 4-(2-(3,4-Dihydroxyphenyl)-5,7-dihydroxy-4-oxo-4H-chromen-3-yloxy)butanenitrile] | > 50 µM | – | > 50 µM | 169 to 171 °C | –
16 | N#Cc1ccc(COc2cc(O)c3c(=O)c(O)c(-c4ccc(O)c(O)c4)oc3c2)cc1 [Compound 3r, 4-(((2-(3,4-Dihydroxyphenyl)-3,5-dihydroxy-4-oxo-4H-chromen-7-yl)oxy)methyl)benzonitrile] | 6.2 ± 0.2 µM | 1.6 | 10.1 ± 0.1 µM | 252 to 254 °C | –
17 | O=c1c(O)c(-c2ccc(O)c(O)c2)oc2cc(OCc3ccccc3F)cc(O)c12 [Compound 3b, 2-(3,4-Dihydroxyphenyl)-7-((2-fluorobenzyl)oxy)-3,5-dihydroxy-4H-chromen-4-one] | 5 ± 0.1 µM | 3.1 | 15.4 ± 0.1 µM | 254 to 255 °C | –
18 | COc1ccc(C(=O)Oc2c(-c3ccc(O)c(O)c3)oc3cc(O)cc(O)c3c2=O)cc1 [Compound 4m, 2-(3,4-Dihydroxyphenyl)-5,7-dihydroxy-4-oxo-4H-chromen-3-yl 4-methoxybenzoate] | 13.6 ± 2.1 µM | 2.5 | 33.9 ± 3.7 µM | 194 to 195 °C | –
19 | N#Cc1ccccc1C(=O)Oc1c(-c2ccc(O)c(O)c2)oc2cc(O)cc(O)c2c1=O [Compound 4e, 2-(3,4-Dihydroxyphenyl)-5,7-dihydroxy-4-oxo-4H-chromen-3-yl 2-cyanobenzoate] | 20.2 ± 8.6 µM | >2.5 | > 50 µM | 196 to 197 °C | –
20 | O=C(Oc1c(-c2ccc(O)c(O)c2)oc2cc(O)cc(O)c2c1=O)c1ccccc1F [Compound 4b, 2-(3,4-Dihydroxyphenyl)-5,7-dihydroxy-4-oxo-4H-chromen-3-yl 2-fluorobenzoate] | 12.9 ± 3.2 µM | >3.9 | > 50 µM | 186 to 187 °C | –
21 | O=C(Oc1c(-c2ccc(O)c(O)c2)oc2cc(O)cc(O)c2c1=O)c1cccc(Cl)c1 [Compound 4j, 2-(3,4-Dihydroxyphenyl)-5,7-dihydroxy-4-oxo-4H-chromen-3-yl 3-chlorobenzoate] | 23 ± 3.2 µM | – | > 50 µM | > 300 °C | –
22 | O=c1c(O)c(-c2ccc(O)c(O)c2)oc2cc(OCc3ccc(Br)cc3)cc(O)c12 [Compound 3p, 7-((4-Bromobenzyl)oxy)-2-(3,4-dihydroxyphenyl)-3,5-dihydroxy-4H-chromen-4-one] | 5.5 ± 1.5 µM | 6.4 | 35.4 ± 1.6 µM | 256 to 257 °C | –
23 | N#Cc1cccc(COc2cc(O)c3c(=O)c(O)c(-c4ccc(O)c(O)c4)oc3c2)c1 [Compound 3l, 3-(((2-(3,4-Dihydroxyphenyl)-3,5-dihydroxy-4-oxo-4H-chromen-7-yl)oxy)methyl)benzonitrile] | 5.4 ± 0.5 µM | 2.0 | – | – | 10.6 ± 0.5 µM
